This is an account of results in patent publication US9427440B2, “Macrocyclic indole derivatives useful as hepatitis C virus inhibitors” (Janssen Sciences Ireland UC, priority 2008, dated 2016).

As a reminder, the Kd is a measure of binding affinity in units of concentration. Low readings indicate a tighter complex, high ones a looser complex. Usually EC50 stands for the concentration needed to bring the measured effect to its halfway point. Read a low EC50 as greater potency. The IC50 is the midpoint of a concentration-inhibition curve.

Targets include NS5B 1a isolate 1 (Hepatitis C virus genotype 1a, UniProt P27958); NS5B 1a isolate 2 (Hepatitis C virus genotype 1a, UniProt P27958); NS5B 1a isolate 4 (Hepatitis C virus genotype 1a, UniProt P27958); NS5B 1a isolate 3 (Hepatitis C virus genotype 1a, UniProt P27958); NS5B 1b isolate 2 (Hepatitis C virus genotype 1b, UniProt Q9WMX2); NS5B 2b isolate 2 (Hepatitis C virus genotype 2b, UniProt P26661); NS5B 1b isolate 3 (Hepatitis C virus genotype 1b, UniProt Q9WMX2).

In data set [1] the target is T1, NS5B 6a isolate 5 (Hepatitis C virus genotype 6a, UniProt O39927). Description: biochemical.
The target of data set [2] is T2, NS5B 4a isolate 3 (Hepatitis C virus genotype 4a, UniProt O39929).
For a further data set, the target named is NS5B 5a isolate 4 (Hepatitis C virus genotype 5a, UniProt O39928). The data set is described as follows: Enzyme binding affinity, SPR (Biacore). Also noted: species or system HCV. (SPR reads the build-up and loss of mass on a sensor chip optically.)
Data set [3] has as its target T3, NS5B 4a isolate 1 (Hepatitis C virus genotype 4a, UniProt O39929).
For data set [4], the target named is T4, NS5B 4a isolate 2 (Hepatitis C virus genotype 4a, UniProt O39929).
In data set [5] the target is T1, NS5B 6a isolate 5.
In data set [6] the target is T2, NS5B 4a isolate 3. The data set is described as follows: biochemical.
For data set [7], the target named is T3, NS5B 4a isolate 1. Description: biochemical.
For data set [8], the target named is T4, NS5B 4a isolate 2. Description: biochemical.
Data set [9] concerns HCV type 1b replicon in Huh-7 luc/neo (Huh-Luc) cells. Description: HCV replicon assay (Huh-Luc, luciferase). Particulars: Hepatitis C virus, Huh-7, 72 h. For orientation: A replicon is a self-replicating genome or part of one, used to study replication in cells.
For the next data set, the target named is HCV NS5B 1bJ4 (Hepatitis C virus genotype 1b (strain HC-J4) (HCV), UniProt O92972). The data set is described as follows: Inhibition assay with NS5b 1bJ4 (RdRp, SPA). Particulars: 50 nM NS5B 1bJ4 enzyme, radiolabeled GTP incorporation. The data set is classed as biochemical.
Chain of HCV NS5B 1bJ4 (O92972 whole entry, looked up): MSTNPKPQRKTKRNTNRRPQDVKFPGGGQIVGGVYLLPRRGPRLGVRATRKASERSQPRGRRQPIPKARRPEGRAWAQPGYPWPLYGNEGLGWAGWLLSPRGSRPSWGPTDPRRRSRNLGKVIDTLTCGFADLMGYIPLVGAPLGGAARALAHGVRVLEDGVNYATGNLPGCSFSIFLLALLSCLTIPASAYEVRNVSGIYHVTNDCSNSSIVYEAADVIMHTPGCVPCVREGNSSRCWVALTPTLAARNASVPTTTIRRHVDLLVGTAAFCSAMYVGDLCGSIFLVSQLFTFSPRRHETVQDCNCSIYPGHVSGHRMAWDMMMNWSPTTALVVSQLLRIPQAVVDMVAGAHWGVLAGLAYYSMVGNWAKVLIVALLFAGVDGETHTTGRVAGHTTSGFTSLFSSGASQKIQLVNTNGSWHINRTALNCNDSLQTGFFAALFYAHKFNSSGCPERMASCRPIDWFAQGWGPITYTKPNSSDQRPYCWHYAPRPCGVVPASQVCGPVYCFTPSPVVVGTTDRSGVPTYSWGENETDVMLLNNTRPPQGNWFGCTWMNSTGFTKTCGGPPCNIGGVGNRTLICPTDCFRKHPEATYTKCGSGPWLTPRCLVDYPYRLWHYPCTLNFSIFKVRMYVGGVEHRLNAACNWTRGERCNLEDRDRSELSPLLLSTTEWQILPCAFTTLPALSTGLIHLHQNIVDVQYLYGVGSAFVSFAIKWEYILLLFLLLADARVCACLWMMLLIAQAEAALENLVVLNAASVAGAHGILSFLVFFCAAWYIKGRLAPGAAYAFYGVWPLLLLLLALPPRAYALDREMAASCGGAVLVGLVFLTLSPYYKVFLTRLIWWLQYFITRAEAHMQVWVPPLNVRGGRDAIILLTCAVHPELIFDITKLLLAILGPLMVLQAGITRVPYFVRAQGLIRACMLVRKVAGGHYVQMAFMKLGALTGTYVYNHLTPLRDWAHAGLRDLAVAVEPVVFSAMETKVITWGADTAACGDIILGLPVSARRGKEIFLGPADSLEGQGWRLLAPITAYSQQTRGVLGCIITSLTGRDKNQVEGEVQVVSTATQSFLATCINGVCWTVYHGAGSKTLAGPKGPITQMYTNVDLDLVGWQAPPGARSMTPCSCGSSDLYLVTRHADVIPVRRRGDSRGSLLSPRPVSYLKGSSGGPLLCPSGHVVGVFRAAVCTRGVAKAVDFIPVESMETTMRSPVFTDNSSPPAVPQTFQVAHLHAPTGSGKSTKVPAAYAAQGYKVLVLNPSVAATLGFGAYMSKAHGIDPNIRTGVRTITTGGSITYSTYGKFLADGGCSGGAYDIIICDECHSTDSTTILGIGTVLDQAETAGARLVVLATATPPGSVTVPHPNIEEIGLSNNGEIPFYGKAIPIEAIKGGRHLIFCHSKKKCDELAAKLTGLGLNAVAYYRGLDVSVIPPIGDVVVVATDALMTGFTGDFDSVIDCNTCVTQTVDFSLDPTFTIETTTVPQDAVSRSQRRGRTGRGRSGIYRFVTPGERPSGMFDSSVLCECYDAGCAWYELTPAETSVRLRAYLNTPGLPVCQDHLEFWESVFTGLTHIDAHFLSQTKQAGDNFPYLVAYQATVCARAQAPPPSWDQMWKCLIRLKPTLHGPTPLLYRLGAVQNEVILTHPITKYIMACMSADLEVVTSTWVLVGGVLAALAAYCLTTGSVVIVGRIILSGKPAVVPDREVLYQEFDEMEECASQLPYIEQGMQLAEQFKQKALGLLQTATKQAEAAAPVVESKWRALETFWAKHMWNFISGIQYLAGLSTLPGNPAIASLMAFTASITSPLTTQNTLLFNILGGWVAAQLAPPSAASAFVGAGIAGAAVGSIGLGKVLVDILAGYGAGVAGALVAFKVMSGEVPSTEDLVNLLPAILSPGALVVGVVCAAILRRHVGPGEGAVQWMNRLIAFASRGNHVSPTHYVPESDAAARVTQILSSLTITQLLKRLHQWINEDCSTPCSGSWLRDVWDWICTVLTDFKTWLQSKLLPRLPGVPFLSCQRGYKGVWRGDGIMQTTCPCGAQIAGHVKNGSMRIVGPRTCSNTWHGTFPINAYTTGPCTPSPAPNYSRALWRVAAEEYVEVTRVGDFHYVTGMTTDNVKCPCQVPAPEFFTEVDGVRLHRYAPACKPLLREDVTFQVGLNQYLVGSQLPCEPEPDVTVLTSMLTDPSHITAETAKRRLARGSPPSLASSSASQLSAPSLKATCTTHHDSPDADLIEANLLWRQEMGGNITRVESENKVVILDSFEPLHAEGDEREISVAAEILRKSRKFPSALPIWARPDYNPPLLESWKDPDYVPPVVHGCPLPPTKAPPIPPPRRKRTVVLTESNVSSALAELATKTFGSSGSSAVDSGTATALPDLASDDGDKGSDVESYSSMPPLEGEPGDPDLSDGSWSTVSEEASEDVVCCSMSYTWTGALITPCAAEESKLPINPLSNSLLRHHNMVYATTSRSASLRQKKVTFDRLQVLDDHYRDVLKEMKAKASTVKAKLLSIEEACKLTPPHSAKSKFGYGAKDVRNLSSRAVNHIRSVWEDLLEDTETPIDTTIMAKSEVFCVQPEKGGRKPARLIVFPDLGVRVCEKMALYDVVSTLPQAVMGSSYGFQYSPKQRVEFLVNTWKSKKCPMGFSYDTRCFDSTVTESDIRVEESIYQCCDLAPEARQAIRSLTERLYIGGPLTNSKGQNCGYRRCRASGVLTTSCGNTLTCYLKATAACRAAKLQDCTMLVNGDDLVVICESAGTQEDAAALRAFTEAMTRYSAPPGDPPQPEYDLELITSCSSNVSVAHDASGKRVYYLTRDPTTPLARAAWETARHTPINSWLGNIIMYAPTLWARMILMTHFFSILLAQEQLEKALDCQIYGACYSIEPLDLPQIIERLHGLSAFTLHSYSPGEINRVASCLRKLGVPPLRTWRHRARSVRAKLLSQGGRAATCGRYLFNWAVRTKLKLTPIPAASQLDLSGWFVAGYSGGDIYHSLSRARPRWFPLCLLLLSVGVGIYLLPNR
In another data set the target is HCV NS5B con1b (Hepatitis C virus genotype 1b (isolate Con1) (HCV), UniProt Q9WMX2). The data set is described as follows: RNA-dependent RNA polymerase assay NS5B con1b. The following applies: read-out: IC50 Con1b; 20 nM Con1b NS5B enzyme, primer-dependent transcription assay.

Protocol for HCV NS5B con1b: Fifty-percent inhibitory concentrations (Table 1: IC50 con1b) were determined according to the method as described previously (Pauwels et al, 2007, J Virol 81:6909-19) using a primer-dependent transcription assay. […] 600 nM GTP and 0.13 μCi of [^3H]GTP was then added to initiate the 40-μl reaction mixture, which was then incubated at room temperature for 2 h before the reaction was stopped by addition of 40-μl streptavidin-coated SPA beads.

As for `COc1ccc2c(c1)C=C1Cn3c-2c(C2CCCCC2)c2ccc(cc23)C(=O)NS(=O)(=O)N(C)CCOCCN(C)C1=O` [Compound 1], the Kd on NS5B 6a isolate 5 [1] came out at 32 nM; at NS5B 5a isolate 4 it was 22 nM; on NS5B 4a isolate 3 [6], 3.4 nM; at NS5B 4a isolate 1 [7], 2.1 nM; on NS5B 4a isolate 2 [8] it was 1.4 nM. In addition, the t1/2 on NS5B 1a isolate 1 was determined as 24.2 min; on NS5B 1a isolate 2, 31.3 min; at NS5B 4a isolate 3 [2] it was 19.1 min; at NS5B 1a isolate 4, 14.9 min; at NS5B 4a isolate 1 [3], 26.7 min; on NS5B 1a isolate 3, 19.2 min. In addition, the t1/2 is 30.1 min at NS5B 4a isolate 2 [4]; 7.3 min on NS5B 6a isolate 5 [5]; 172.1 min on NS5B 1b isolate 2; 1.0 min on NS5B 2b isolate 2; 96.4 min at NS5B 1b isolate 3. On to `COc1ccc2c(c1)C=C1Cn3c-2c(C2CCCCC2)c2ccc(cc23)C(=O)NS(=O)(=O)N2CCN(CCNC1=O)CC2` [Compound 5], for which the EC50 in data set [9] amounted to 920 nM. The same molecule gave an IC50 on HCV NS5B 1bJ4 of 290 nM. In [9], `COc1ccc2c(c1)C=C1Cn3c-2c(C2CCCCC2)c2ccc(cc23)C(=O)NS(=O)(=O)N(C)CCN(C)CCNC1=O` [Compound 6] displayed an EC50 of 550 nM.

In the case of `COc1ccc2c(c1)[C@@H]1C[C@]13Cn1c-2c(C2CCCCC2)c2ccc(cc21)C(=O)NS(=O)(=O)N(C)CCOCCN(C)C3=O` [Compound 8, (1aR,12bS)-8-cyclohexyl-11-methoxy-16,22-dimethyl-1,12b-dihydro-5,1a-(methanoiminothioiminoethanooxyethanoiminomethano)cyclopropa[d]-indolo[2,1-a][2]benzazepine-13,23(2H)-dione 15,15-dioxide], the half-maximal effective concentration (EC50) in data set [9] stood at 40 nM. With `COc1ccc2c(c1)[C@H]1C[C@@]13Cn1c-2c(C2CCCCC2)c2ccc(cc21)C(=O)NS(=O)(=O)N(C)CCOCCN(C)C3=O` [Compound 9, (1 aS,12bR)-8-cyclohexyl-11-methoxy-16,22-dimethyl-1,12b-dihydro-5,1a-(methanoiminothioiminoethanooxyethanoiminomethano)cyclopropa[d]indolo-[2,1-a][2]benzazepine-13,23(2H)-dione 15,15-dioxide], the 50% effective concentration (EC50) in [9] stood at 800 nM. Compared with the last molecule, the EC50 is about 20-fold higher. `COc1ccc2c(c1)C1CC13Cn1c-2c(C2CCCCC2)c2ccc(cc21)C(=O)NS(=O)(=O)N(C)CCCCNC3=O` (stereo not shown) [Compound 10, 8-cyclohexyl-11-methoxy-16-methyl-1,12b-dihydro-5,1a-(methanoiminothioiminobutanoimino)cyclopropa[d]indolo[2,1-a][2]benzazepine-13,22(2H)-dione 15,15-dioxide] returned a concentration for a half-maximal effect (EC50) in data set [9] of 60 nM. For the same molecule, at HCV NS5B 1bJ4, the IC50 is 280 nM. As for `COc1ccc2c(c1)C1CC13Cn1c-2c(C2CCCCC2)c2ccc(cc21)C(=O)NS(=O)(=O)N(C)CCN1CCN(CC1)C3=O` (stereo not shown) [Compound 11, 31-cyclohexyl-8-methoxy-22-methyl-21-thia-1,13,20,22,25-pentaazaheptacyclo-[23.2.2.1^3,13.1^12,15.1^14,18.0^3,5.0^6,11]dotriaconta-6,8,10,12(31),14(30),15,17-heptaene-2,19-dione 21,21-dioxide], the EC50 in data set [9] amounted to 55 nM. In addition, on HCV NS5B 1bJ4, the IC50 is 220 nM. For `COc1ccc2c(c1)C1CC13Cn1c-2c(C2CCCCC2)c2ccc(cc21)C(=O)NS(=O)(=O)N(C)C/C=C/CCNC3=O` (stereo not shown) [Compound 12, 8-cyclohexyl-11-methoxy-16-methyl-1,12b-dihydro-5,1a-(methaniminothio-iminopent[2]enoiminomethano)cyclopropa[d]indolo[2,1-a][2]benzazepine-13,23(2H)-dione 15,15-dioxide] the same measures were 290 nM and 930 nM. Taken in the same sequence, the figures for `COc1ccc2c(c1)C=C1Cn3c-2c(C2CCCCC2)c2ccc(cc23)C(=O)NS(=O)(=O)N(C)CC=CCNC1=O` [Compound 13] were 390 nM and 190 nM. Consider `COc1ccc2c(c1)C=C1Cn3c-2c(C2CCCCC2)c2ccc(cc23)C(=O)NS(=O)(=O)N(C)CCN2CCN(CC2)C1=O` [Compound 15], for which, in data set [9], the EC50 is 180 nM. The molecule `COc1ccc2c(c1)C(C)=C1Cn3c-2c(C2CCCCC2)c2ccc(cc23)C(=O)NS(=O)(=O)N(C)CCOCCN(C)C1=O` [Compound 16] displayed an EC50 in data set [9] of 78 nM. On the same count and under the same terms, as for `COc1ccc2c(c1)C(C)=C1Cn3c-2c(C2CCCCC2)c2ccc(cc23)C(=O)NS(=O)(=O)N(C)CCCCN(C)C1=O` [Compound 17], the figure is 170 nM; as for `COc1ccc2c(c1)C=C1Cn3c-2c(C2CCCCC2)c2ccc(cc23)C(=O)NS(=O)(=O)N(C)CCCCN(C)C1=O` [Compound 18], 79 nM. In [9], `CN1CCOCCN(C)S(=O)(=O)NC(=O)c2ccc3c(C4CCCCC4)c4n(c3c2)CC(=Cc2cc(F)ccc2-4)C1=O` [Compound 19] gave an EC50 of 72 nM. On HCV NS5B con1b, the IC50 was 31 nM. For `CC1=C2Cn3c(c(C4CCCCC4)c4ccc(cc43)C(=O)NS(=O)(=O)N(C)CCOCCN(C)C2=O)-c2ccc(F)cc21` [Compound 20] the same measures were 81 nM and 38 nM.

In data set [9], `CN1CCOCCN(C)S(=O)(=O)NC(=O)c2ccc3c(C4CCCCC4)c4n(c3c2)CC(=Cc2cc(Cl)ccc2-4)C1=O` [Compound 21] came in with a concentration for a half-maximal effect (EC50) of 280 nM. The same measure, in the same setting: as for `COc1ccc2c(c1)C=C1Cn3c-2c(C2CCCCC2)c2ccc(cc23)C(=O)NS(=O)(=O)N(C)CCCCCCN(C)C1=O` [Compound 22], the figure is 160 nM; as for `COc1ccc2c(c1)C=C1Cn3c-2c(C2CCCCC2)c2ccc(cc23)C(=O)NS(=O)(=O)NCCN(C)CCNC1=O` [Compound 23], 470 nM. Same read-out and setting: the value for `CN1CCCCN(C)S(=O)(=O)NC(=O)c2ccc3c(C4CCCCC4)c4n(c3c2)CC(=Cc2ccc(Cl)cc2-4)C1=O` [Compound 24] was 14500 nM. On the same count and under the same terms, as for `COc1ccc2c(c1)C=C1Cn3c-2c(C2CCCCC2)c2ccc(cc23)C(=O)NS(=O)(=O)NCCCCN(C)C1=O` [Compound 25], the figure is 550 nM; as for `COc1ccc2c(c1)C=C1Cn3c-2c(C2CCCCC2)c2ccc(cc23)C(=O)NS(=O)(=O)N(C)CCCCCNC1=O` [Compound 26], 130 nM. The molecule `CN1CCCCCNC(=O)C2=Cc3ccc(Cl)cc3-c3c(C4CCCCC4)c4ccc(cc4n3C2)C(=O)NS1(=O)=O` [Compound 27] gave an EC50 in data set [9] of 10200 nM. The same measure, in the same setting: as for `COc1ccc2c(c1)C=C1Cn3c-2c(C2CCCCC2)c2ccc(cc23)C(=O)NS(=O)(=O)N(C(C)C)CCCCN(C)C1=O` [Compound 28], the figure is 330 nM; as for `COc1ccc2c(c1)C=C1Cn3c-2c(C2CCCCC2)c2ccc(cc23)C(=O)NS(=O)(=O)N(C)CCCCNC1=O` [Compound 38], 912 nM.
